Key:
[1] = test system: normal NK cells expanded with K562-aAPC; assay: percent inhibition of viability; higher = more inhibition; conditions: 72 h, IL-2 2.5 ng/mL
Protocol: (§1)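 Drug sensitivity and resistance testing on K562-aAPC-expanded normal NK cells: 5 concentrations (10-fold steps over a 10,000-fold range), 72 h at 37 °C, viability by CellTiter-Glo normalised to DMSO and benzethonium chloride controls; DSS from the fitted curve.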

DERL-7 (IL-2 2.5 ng/mL) [2] = assay: as above; conditions: 72 h
IMC-1 (IL-2 20 ng/mL) [3] = assay: as above; conditions: 72 h
KAI3 (IL-2 2.5 ng/mL) [4] = assay: as above; conditions: 72 h
KHYG-1 (IL-2 2.5 ng/mL) [5] = assay: as above; conditions: 72 h
NK-92 (IL-2 2.5 ng/mL) [6] = assay: as above; conditions: 72 h
NK-YS (IL-2 2.5 ng/mL) [7] = assay: as above; conditions: 72 h
NKL (IL-2 2.5 ng/mL) [8] = assay: as above; conditions: 72 h
SNK-6 (IL-2 2.5 ng/mL) [9] = assay: as above; conditions: 72 h
YT (IL-2 2.5 ng/mL) [10] = assay: as above; conditions: 72 h
[11] = test system: normal primary NK cells, pool 1 (3 donors) (IL-2 2.5 ng/mL); assay: as above; conditions: 72 h
[12] = test system: normal primary NK cells, pool 1 (3 donors), resting (IL-2 0 ng/mL); assay: as above; conditions: 72 h
[13] = test system: normal primary NK cells, pool 2 (3 donors) (IL-2 2.5 ng/mL); assay: as above; conditions: 72 h
[14] = test system: normal primary NK cells, pool 3 (3 donors) (IL-2 2.5 ng/mL); assay: as above; conditions: 72 h
[15] = test system: normal NK cells expanded with K562-aAPC; assay: drug sensitivity score (DSS) (DSS units); higher = more sensitive; extreme values may be limits of the assay; conditions: 72 h; IL-2 2.5 ng/mL
Protocol: as §1

DERL-7 (IL-2 2.5 ng/mL) [16] = assay: as above; conditions: 72 h
IMC-1 (IL-2 20 ng/mL) [17] = assay: as above; conditions: 72 h
KAI3 (IL-2 2.5 ng/mL) [18] = assay: as above; conditions: 72 h
KHYG-1 (IL-2 2.5 ng/mL) [19] = assay: as above; conditions: 72 h
NK-92 (IL-2 2.5 ng/mL) [20] = assay: as above; conditions: 72 h
NK-YS (IL-2 2.5 ng/mL) [21] = assay: as above; conditions: 72 h
NKL (IL-2 2.5 ng/mL) [22] = assay: as above; conditions: 72 h
SNK-6 (IL-2 2.5 ng/mL) [23] = assay: as above; conditions: 72 h
YT (IL-2 2.5 ng/mL) [24] = assay: as above; conditions: 72 h
[25] = test system: normal primary NK cells, pool 1 (3 donors) (IL-2 2.5 ng/mL); assay: as above; conditions: 72 h
[26] = test system: normal primary NK cells, pool 1 (3 donors), resting (IL-2 0 ng/mL); assay: as above; conditions: 72 h
[27] = test system: normal primary NK cells, pool 2 (3 donors) (IL-2 2.5 ng/mL); assay: as above; conditions: 72 h
[28] = test system: normal primary NK cells, pool 3 (3 donors) (IL-2 2.5 ng/mL); assay: as above; conditions: 72 h

c1ccc2c(CCNc3ccc(Nc4ccncc4)cc3)c[nH]c2c1 [Serdemetan] (max concentration tested 10000 nM)
percent inhibition of viability [%]
Conditions | 1 nM | 10 nM | 100 nM | 1000 nM | 10000 nM
DERL-7 (IL-2 2.5 ng/mL) [2] | 1.57 | 3.06 | 5.72 | 93 | 99.8
IMC-1 (IL-2 20 ng/mL) [3] | -3.43 | -4.48 | -1.24 | 6.25 | 86.2
KAI3 (IL-2 2.5 ng/mL) [4] | 1.77 | -7.13 | 13.3 | 71.7 | 96.4
KHYG-1 (IL-2 2.5 ng/mL) [5] | -4.53 | -3.7 | -1.91 | 20.5 | 94.6
NK-92 (IL-2 2.5 ng/mL) [6] | -2.5 | -9.68 | -24.1 | 16.9 | 89.1
NK-YS (IL-2 2.5 ng/mL) [7] | -3.94 | -6.06 | -3.31 | 54.3 | 93.6
NKL (IL-2 2.5 ng/mL) [8] | -4.48 | -6.86 | 12.5 | 103 | 96.3
SNK-6 (IL-2 2.5 ng/mL) [9] | 1.74 | -8.4 | -40.5 | 2.69 | 97.8
YT (IL-2 2.5 ng/mL) [10] | -0.01 | -0.09 | 2.11 | 16.2 | 89.5
[1] | 3.3 | -0.88 | -3.23 | 41.7 | 99.6
[11] | -2.89 | -12 | -5.86 | 54.6 | 98
[12] | -1.96 | -20.5 | -16.5 | 78.3 | 90.8
[13] | -12.5 | -4.95 | -4.4 | 34 | 94.8
[14] | -9.21 | -2.68 | -1.24 | 41.2 | 98.2

Conditions | drug sensitivity score
DERL-7 (IL-2 2.5 ng/mL) [16] | 17.7
IMC-1 (IL-2 20 ng/mL) [17] | 5.74
KAI3 (IL-2 2.5 ng/mL) [18] | 15.1
KHYG-1 (IL-2 2.5 ng/mL) [19] | 8.49
NK-92 (IL-2 2.5 ng/mL) [20] | 7.67
NK-YS (IL-2 2.5 ng/mL) [21] | 11.7
NKL (IL-2 2.5 ng/mL) [22] | 20.1
SNK-6 (IL-2 2.5 ng/mL) [23] | 5.77
YT (IL-2 2.5 ng/mL) [24] | 7.62
[15] | 11
[25] | 12
[26] | 14
[27] | 9.95
[28] | 10.8

C=CCNC1=C2C[C@@H](C)C[C@H](OC)[C@H](O)[C@@H](C)/C=C(\C)[C@H](OC(N)=O)[C@@H](OC)/C=C\C=C(/C)C(=O)NC(=CC1=O)C2=O [Tanespimycin] (max concentration tested 10000 nM)
percent inhibition of viability [%]
Conditions | 1 nM | 10 nM | 100 nM | 1000 nM | 10000 nM
DERL-7 (IL-2 2.5 ng/mL) [2] | 0.9 | -1.85 | 35.9 | 101 | 101
IMC-1 (IL-2 20 ng/mL) [3] | -1.67 | 0.76 | 3.61 | 99.8 | 101
KAI3 (IL-2 2.5 ng/mL) [4] | 0.55 | 5.14 | 60.9 | 104 | 105
KHYG-1 (IL-2 2.5 ng/mL) [5] | -4.47 | 0.32 | 7.33 | 103 | 106
NK-92 (IL-2 2.5 ng/mL) [6] | -11.8 | -0.27 | 37.7 | 99.1 | 100
NK-YS (IL-2 2.5 ng/mL) [7] | -3.46 | -0.46 | 63.4 | 103 | 105
NKL (IL-2 2.5 ng/mL) [8] | -8.98 | -11.1 | 73.2 | 91.9 | 91.2
SNK-6 (IL-2 2.5 ng/mL) [9] | 3.74 | -19.1 | 41.6 | 87.7 | 89.8
YT (IL-2 2.5 ng/mL) [10] | -5.76 | -8.38 | 13.2 | 94.7 | 101
[1] | -6.12 | -2.4 | 32.3 | 99.3 | 100
[11] | 1.58 | 12.9 | 49.5 | 87.4 | 92.3
[12] | -6.62 | 18.1 | 28.8 | 51.2 | 69.4
[13] | -2.56 | 2.25 | 36.4 | 80 | 85.7
[14] | -2.89 | -1.44 | 15.4 | 76.7 | 89.1

Conditions | drug sensitivity score
DERL-7 (IL-2 2.5 ng/mL) [16] | 23
IMC-1 (IL-2 20 ng/mL) [17] | 18.4
KAI3 (IL-2 2.5 ng/mL) [18] | 25.3
KHYG-1 (IL-2 2.5 ng/mL) [19] | 19.3
NK-92 (IL-2 2.5 ng/mL) [20] | 23.1
NK-YS (IL-2 2.5 ng/mL) [21] | 25.4
NKL (IL-2 2.5 ng/mL) [22] | 25
SNK-6 (IL-2 2.5 ng/mL) [23] | 21.6
YT (IL-2 2.5 ng/mL) [24] | 19.1
[15] | 22.6
[25] | 22.4
[26] | 14
[27] | 19.2
[28] | 16

Nc1nc(Cl)nc2c1ncn2[C@H]1C[C@H](O)[C@@H](CO)O1 [Cladribine] (max concentration tested 1000 nM)
percent inhibition of viability [%]
Conditions | 0.1 nM | 1 nM | 10 nM | 100 nM | 1000 nM
DERL-7 (IL-2 2.5 ng/mL) [2] | -4.72 | -1.74 | 2.44 | 83.3 | 100
IMC-1 (IL-2 20 ng/mL) [3] | -1.93 | -4.54 | -8.55 | 59.4 | 99.9
KAI3 (IL-2 2.5 ng/mL) [4] | -17.3 | -11.1 | -4.18 | 61.5 | 92.2
KHYG-1 (IL-2 2.5 ng/mL) [5] | -2.1 | -6.64 | 0.12 | 102 | 99.4
NK-92 (IL-2 2.5 ng/mL) [6] | -7.06 | -4.86 | 2.88 | 92.3 | 97.7
NK-YS (IL-2 2.5 ng/mL) [7] | -8.76 | -10.6 | -9.2 | 7.65 | 88.2
NKL (IL-2 2.5 ng/mL) [8] | -13.2 | -8.81 | -9.87 | 104 | 98.6
SNK-6 (IL-2 2.5 ng/mL) [9] | 11.6 | 5.52 | 8.41 | 66.9 | 91.5
YT (IL-2 2.5 ng/mL) [10] | -4 | -5.35 | -6.95 | 5.62 | 56.9
[1] | -1.61 | -1.55 | 30.3 | 100 | 100
[11] | -5.25 | -7.26 | 23.2 | 93.1 | 96.5
[12] | -18.2 | -14.8 | 62 | 90.2 | 90
[13] | -13.2 | -12.7 | 24.4 | 90.6 | 93.7
[14] | -12.6 | -10.5 | 18.2 | 87.7 | 97

Conditions | drug sensitivity score
DERL-7 (IL-2 2.5 ng/mL) [16] | 15.4
IMC-1 (IL-2 20 ng/mL) [17] | 12.5
KAI3 (IL-2 2.5 ng/mL) [18] | 12.2
KHYG-1 (IL-2 2.5 ng/mL) [19] | 18.2
NK-92 (IL-2 2.5 ng/mL) [20] | 17.1
NK-YS (IL-2 2.5 ng/mL) [21] | 6.1
NKL (IL-2 2.5 ng/mL) [22] | 17.6
SNK-6 (IL-2 2.5 ng/mL) [23] | 13.8
YT (IL-2 2.5 ng/mL) [24] | 3.98
[15] | 22.4
[25] | 20.3
[26] | 23.5
[27] | 20.3
[28] | 18.4
